Key:
[1] = known; cited from earlier work
[2] = test system: H2-RSETA mRNA (H10 and H19 in tandem in the 5′ UTR); assay: Wheat germ in vitro translation of H2-RSETA mRNA; assay type: biochemical; settings: 0, 40 or 80 μM H33258, wheat germ extract
Description: (§1) FIG. 10. is a histogram summarizing SDS-PAGE densitometry data from in vitro translation experiments. RNA transcripts containing 0 (RSETA) or 2 copies of an H33258 aptamer (H2-RSETA) were translated in a wheat germ extract in the presence of ^35S-methionine and 0, 40 or 80 μM H33258. Protein products were subjected to SDS-PAGE and quantitated by densitometry. For each transcript, translation in the absence of drug was set at 100%.
(§2) In vitro transcription reactions contained 5 μg pRSETA (or RSET derivative), 0.5 mM m^7G(5′)G, 0.5 mM ATP, CTP, UTP, 0.05 mM GTP, 10 mM DTT and 40 U T7 RNA polymerase in 50 μl of a solution of 40 mM Tris-HCl pH 7.5, 6 mM MgCl2, 2 mM spermidine, 10 mM NaCl. Following incubation for 1 hour at 37° C., RNA was purified by phenol:chloroform extraction, ethanol precipitation and resuspended in 30 μl H2O. Translation reactions were carried out in 10 μl containing 5 μl wheat germ extract, 0.8 μl 1 mM amino acid mixture (minus methionine), 2 μl of RNA transcript (described above), 0.5 μl [^35S] methionine (1200 Ci/mmole) and 0-80 μM drug. Reactions were incubated at 25{square root} C. for 15 minutes and terminated by addition of 2X sample loading buffer. Translation products were separated by electrophoresis on an 18% polyacrylamide gel, visualized by autoradiography, and quantitated by densitometry.

[3] = cited from earlier work; for Cell permeability: known
[4] = test system: tob3-RSETA mRNA (three copies of the tob aptamer in the 5′ UTR); assay: Wheat germ in vitro translation of tob3-RSETA mRNA; assay type: biochemical; settings: 0, 30 or 60 μM drug, wheat germ extract
Description: (§3) FIG. 4. is a histogram showing percent translation of mRNA in a wheat germ in vitro translation system containing 0 (RSETA) or 3 copies of the tob aptamer cloned into the 5′ UTR of RSETA (tob3-RSETA) and 0, 30 or 60 μM tobramycin or kanamycin A. Protein products were analyzed by SDS-PAGE and quantitated by densitometry. For each transcript, translation in the absence of drug was set at 100%.
A test mRNA was constructed containing three copies of the tob aptamer inserted in the 5′ UTR of RSETA (tob3-RSETA). In vitro translation reactions were performed in the presence of 0, 30 or 60 μM tobramycin or kanamycin A.
as §2, with “Reactions were incubated at 25{square root} C. for 15 minutes and terminated by addition of 2X sample loading buffer.” left out

[5] = test system: E. coli BL-21 cells expressing RSETA, kan or tob aptamers; assay: Growth of E. coli expressing antibiotic aptamers in antibiotic-containing medium; assay type: cell-based; settings: 10 mM antibiotic, liquid culture; for Growth of bl-kan1 (kanamycin aptamer) in the presence of antibiotic: strain bl-kan1; for Growth of bl-tob1 (tobramycin aptamer) in the presence of antibiotic: strain bl-tob1
Description: FIGS. 3A-3E are growth curves of E. coli expressing antibiotic aptamers. Overnight cultures of BL-21 cells transformed with plasmids expressing RSETA, tob1, tob3, kan1 or kan3 were diluted 100-fold into medium containing the indicated concentration of aminoglycoside antibiotic. Optical density (660 nm) was measured at fixed intervals over 8 hours of growth at 37° C.
As an initial test for the ability of these aptamers to function in vivo, we asked whether following expression in E. coli the aptamer would sequester the cognate antibiotic thereby conferring a specific drug-resistant phenotype. Toward this end, one or three copies of the kanamycin A (kan) or the tobramycin (tob) aptamer were cloned into the T7 RNA polymerase-driven expression vector PRSETA (Invitrogen), and transformed into a bacterial strain containing an IPTG-inducible T7 RNA polymerase. Bacterial strains were grown in liquid culture overnight and then diluted into antibiotic-containing medium. In the absence of drug, bacterial strains expressing no aptamer (bl-RSETA), the kanamycin aptamer (bl-kan1), or the tobramycin aptamer (bl-tob1) grew similarly (FIG. 3A). […] The partial-resistance of bl-kan1 to tobramycin (our unpublished data).

[6] = test system: control RSETA mRNA; assay: Wheat germ in vitro translation of control RSETA mRNA; assay type: biochemical; settings: all concentrations tested, wheat germ extract
Description: as §3, §1
A test mRNA was constructed containing three copies of the tob aptamer inserted in the 5′ UTR of RSETA (tob3-RSETA). […]
In vitro transcription reactions contained 5 μg pRSETA (or RSET derivative), 0.5 mM m^7G(5′)G, 0.5 mM ATP, CTP, UTP, 0.05 mM GTP, 10 mM DTT and 40 U T7 RNA polymerase in 50 μl of a solution of 40 mM Tris-HCl pH 7.5, 6 mM MgCl2, 2 mM spermidine, 10 mM NaCl. […] Translation products were separated by electrophoresis on an 18% polyacrylamide gel, visualized by autoradiography, and quantitated by densitometry.

[7] = test system: luciferase reporter (pGL3) in CHO cells; assay: Luciferase internal control reporter in transfected CHO cells; assay type: cell-based; settings: 24 hours, 0, 5 or 10 μM H33342
Description: (§4) FIG. 11 is a histogram summarizing data from in vivo expression experiments. H33258 aptamers H10 and H19 were cloned in tandem into the 5′ UTR of a β-galactosidase reporter gene (SVβ gal; Promega) to generate SVH2β gal. CHO cells were cotransfected with 1 μg SVβ gal or SVH2β gal and 1 μg of a luciferase expression vector (pGL3). Transfected cells were grown in the presence of […]. Twenty-four hours after transfection, cell extracts were prepared, and β-galactosidase and luciferase activities were determined.
(§5) To test whether this small molecule-aptamer interaction could be used to control gene expression in vivo, one copy of H10 and H19 were inserted into the 5′ UTR of a mammalian β-galactosidase expression plasmid SVβ Gal (Promega), generating the construct SVH2β gal. CHO cells were cotransfected with SVH2β Gal or as a control the parental vector, SVβ Gal, and a luciferase reporter gene to provide an internal control. Following transfection, cells were grown for 24 hours in the presence of 0, 5 or 10 μM H33342 and analyzed for β-galactosidase and luciferase activities.
(§6) H33258 aptamers, H10 and H19, were cloned in tandem into the 5′ UTR of a β-galactosidase reporter gene (SVβ gal, Promega) to generate SVH2β gal. […] 24 hours post-transfection cell extracts were prepared and β-galactosidase and luciferase activities were determined.

[8] = test system: parental expression vector SVβ Gal in CHO cells; assay: β-galactosidase reporter expression in transfected CHO cells, parental SVβ Gal; assay type: cell-based; settings: 24 hours, 0, 5 or 10 μM H33342, data not shown
Description: as §4, §5, §6

[9] = test system: SVH2β Gal (β-galactosidase reporter with H10 and H19 in the 5′ UTR) in CHO cells; assay: β-galactosidase reporter expression in transfected CHO cells, SVH2β gal; assay type: cell-based; settings: 24 hours, 0, 5 or 10 μM H33342, dose-dependent
Description: as §4, §5, §6

| SMILES | Toxicity [1] | In vitro translation of H2-RSETA mRNA [2] | Cell permeability [3] | In vitro translation of tob3-RSETA mRNA [4] | Growth of bl-kan1 (kanamycin aptamer) in the presence of antibiotic [5] | Growth of bl-tob1 (tobramycin aptamer) in the presence of antibiotic [5] | In vitro translation of control RSETA mRNA [6] | Growth of bl-RSETA (no aptamer) in the presence of antibiotic ([5]; strain bl-RSETA) | Expression of the luciferase reporter [7] | Expression of parental expression vector SVβ Gal [8] | Cell permeability relative to H33258 [3] | Reduction of β-galactosidase activity from SVH2β Gal [9] |
| --- | --- | --- | --- | --- | --- | --- | --- | --- | --- | --- | --- | --- |
| CN1CCN(c2ccc3[nH]c(-c4ccc5[nH]c(-c6ccc(O)cc6)nc5c4)nc3c2)CC1 [H33258] | relatively non-toxic | inhibited in vitro translation of H2-RSETA | cell-permeable |  |  |  |  |  |  |  |  |  |
| NC[C@H]1O[C@H](O[C@H]2[C@H](O)[C@@H](O[C@H]3O[C@H](CO)[C@@H](O)[C@H](N)[C@H]3O)[C@H](N)C[C@@H]2N)[C@H](N)C[C@@H]1O [tobramycin] |  |  |  | inhibited in vitro translation of the tob3-RSETA mRNA in a dose-dependent fashion | grew to a sub-saturating level | grew to saturation | unaffected |  |  |  |  |  |
| NC[C@H]1O[C@H](O[C@H]2[C@H](O)[C@@H](O[C@H]3O[C@H](CO)[C@@H](O)[C@H](N)[C@H]3O)[C@H](N)C[C@@H]2N)[C@H](O)[C@@H](O)[C@@H]1O [kanamycin A] |  |  |  | not inhibited | grew to saturation | neglible | unaffected | neglible |  |  |  |  |
| CCOc1ccc(-c2nc3ccc(-c4nc5ccc(N6CCN(C)CC6)cc5[nH]4)cc3[nH]2)cc1 [H33342] | relatively non-toxic |  | cell-permeable |  |  |  |  |  | not inhibited | not inhibited | approximately ten-fold more cell-permeable | greater than 90% |

Source: US20020006661A1, “Controlling gene expression in living cells” (University of Massachusetts, a Massachusetts corporation, priority 1998, published 2002)
